What was measured:
D2 receptor = conditions: cited from earlier work
5-HT2B receptor [1] = target: T1, 5-HT2B receptor (Homo sapiens, UniProt P41595); assay: 5-HT2B functional assay using HTRF quantitation of IP1 accumulation; format: cell-based
5-HT2B receptor [2] = target: T1, 5-HT2B receptor; assay: 5-HT2B functional assay, intracellular calcium mobilization; format: cell-based; conditions: FLIPR Tetra, n = 5
D4 = target: T2, D4 (Homo sapiens, UniProt P21917); assay: D4 functional assay; format: cell-based; conditions: performed at the PDSP
T2 sequence (P21917 1-419): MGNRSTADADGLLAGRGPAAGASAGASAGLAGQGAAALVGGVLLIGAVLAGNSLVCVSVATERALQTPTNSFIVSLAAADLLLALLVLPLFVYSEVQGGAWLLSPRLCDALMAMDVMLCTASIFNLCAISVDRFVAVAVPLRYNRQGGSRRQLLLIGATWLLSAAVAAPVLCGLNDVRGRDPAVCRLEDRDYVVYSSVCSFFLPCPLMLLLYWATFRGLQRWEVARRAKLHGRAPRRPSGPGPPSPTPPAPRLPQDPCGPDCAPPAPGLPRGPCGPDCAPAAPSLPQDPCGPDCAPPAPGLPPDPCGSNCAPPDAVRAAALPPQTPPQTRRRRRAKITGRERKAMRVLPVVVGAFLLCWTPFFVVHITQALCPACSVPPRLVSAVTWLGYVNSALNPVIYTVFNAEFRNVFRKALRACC

5-HT2B receptor [3] = target: T1, 5-HT2B receptor; assay: 5-HT2B functional antagonism against serotonin; format: cell-based
D2 = D2 (Homo sapiens, UniProt P14416); assay: D2 functional assay; format: cell-based; conditions: performed at the PDSP
Sequence of D2 (P14416 whole entry): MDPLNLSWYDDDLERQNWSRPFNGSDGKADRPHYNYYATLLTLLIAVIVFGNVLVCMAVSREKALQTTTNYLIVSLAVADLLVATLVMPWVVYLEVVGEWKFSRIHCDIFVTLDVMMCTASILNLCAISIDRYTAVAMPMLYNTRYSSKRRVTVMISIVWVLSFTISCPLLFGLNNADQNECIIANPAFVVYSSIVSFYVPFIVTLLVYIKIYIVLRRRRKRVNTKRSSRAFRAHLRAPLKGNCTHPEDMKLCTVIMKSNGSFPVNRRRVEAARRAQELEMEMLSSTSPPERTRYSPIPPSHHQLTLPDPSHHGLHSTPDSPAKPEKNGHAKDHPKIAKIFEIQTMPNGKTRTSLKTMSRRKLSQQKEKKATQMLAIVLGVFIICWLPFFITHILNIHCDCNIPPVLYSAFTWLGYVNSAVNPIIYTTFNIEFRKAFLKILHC

5-HT2B receptor [4] = target: T1, 5-HT2B receptor; conditions: binding and functional assays; cited from earlier work
[5] = system: 5-HT2B receptors in porcine pulmonary arteries; conditions: cited from earlier work

T1 sequence (P41595 whole entry): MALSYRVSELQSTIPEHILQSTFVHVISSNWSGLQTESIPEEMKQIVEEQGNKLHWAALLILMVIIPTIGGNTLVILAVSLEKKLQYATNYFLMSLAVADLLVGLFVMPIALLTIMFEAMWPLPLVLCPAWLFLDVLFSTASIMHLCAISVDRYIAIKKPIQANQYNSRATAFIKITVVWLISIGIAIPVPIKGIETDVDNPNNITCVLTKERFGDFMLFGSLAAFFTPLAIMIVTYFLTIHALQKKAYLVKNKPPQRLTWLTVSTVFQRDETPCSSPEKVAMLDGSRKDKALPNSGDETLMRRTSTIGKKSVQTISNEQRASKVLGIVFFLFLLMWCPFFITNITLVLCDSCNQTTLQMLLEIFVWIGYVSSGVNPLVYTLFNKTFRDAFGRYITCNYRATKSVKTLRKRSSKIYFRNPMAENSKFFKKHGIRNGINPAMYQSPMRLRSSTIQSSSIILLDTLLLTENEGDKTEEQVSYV

Structure (SMILES) | Functionality at the 5-HT2B receptor (IP1 assay) (5-HT2B receptor [1]) | Functionality at the human 5-HT2B receptor (calcium mobilization assay) (5-HT2B receptor [2]) | Antagonism against serotonin at the 5-HT2B receptor (5-HT2B receptor [3]) | also measured
CSC[C@@H]1C[C@@H]2c3cccc4[nH]cc(c34)C[C@H]2N(C)C1 [6-methylpergolide] | – | – | – | Functionality at the D2 receptor (D2 receptor): full agonists
C=CCN1C[C@H](C(=O)N(CCCN2CCOCC2)C(=O)NCC)C[C@@H]2c3cccc4[nH]cc(c34)C[C@H]21 [Compound 1] | full agonists | – | – | –
CCNC(=O)N(CCCN(C)C)C(=O)[C@@H]1C[C@@H]2c3cccc4c3c(cn4C)C[C@H]2N(C)C1 [Compound 9, 1,6-Dimethylcabergoline] | no agonism | no agonism | potent antagonists | D4 functionality (D4): full D4 agonist; D2 functionality (D2): potent but partial D2 agonist
CN(C)CCCNC(=O)[C@@H]1C[C@@H]2c3cccc4c3c(cn4C)C[C@H]2N(C)C1 [Compound 14] | minimal to no agonism | minimal to no agonism | potent antagonists | –
COC(OC)[C@@H]1C[C@@H]2c3cccc4c3c(cn4C)C[C@H]2N(C)C1 [Compound 15] | no agonism | no agonism | potent antagonists | –
C=CCN1C[C@H](C(=O)N(CCCN(C)C)C(=O)NCC)C[C@@H]2c3cccc4[nH]cc(c34)C[C@H]21 [cabergoline, reference compound] | full agonists | – | – | –
CC[C@@H](CO)NC(=O)[C@@H]1C=C2c3cccc4[nH]cc(c34)C[C@H]2N(C)C1 [methylergonovine] | – | – | – | Activity at the 5-HT2B receptor (5-HT2B receptor [4]): partial agonist
CC[C@@H](CO)NC(=O)[C@@H]1C=C2c3cccc4c3c(cn4C)C[C@H]2N(C)C1 [methysergide] | – | – | – | Activity at the 5-HT2B receptor (5-HT2B receptor [4]): significantly weaker activity
CCCN1C[C@H](CSC)C[C@@H]2c3cccc4[nH]cc(c34)C[C@H]21 [pergolide] | – | – | – | Functionality at 5-HT2B receptors in porcine pulmonary arteries [5]: functional agonist; Functionality at the D2 receptor (D2 receptor): full agonists

From publication PMC3629922 (ACS medicinal chemistry letters, 2013)
